In paper PMC12113707, “Microwave Assisted Synthesis of Antioxidant Dihydro-Pyrazole Hybrids as Possible Lipoxygenase Inhibitors” (Molecules, 2025):
One block for each molecule: values may come before it.

Assays:
[1] = Experimental lipophilicity RM by reverse phase thin layer chromatography (RP-TLC); type: physicochemical; settings: methanol-water mobile phase
Procedure: Lipophilicity is a main physicochemical parameter for bioactive molecules, linking solubility, ligand-target binding interactions, membrane permeability absorption, distribution, bioavailability, metabolism, elimination and toxicological effects (ADMET), playing an important role in biological activity. The experimental values of lipophilicity RM were determined by reverse phase thin layer chromatography. For the experimental determination of lipophilicity the hydrophilic-lipid phase system is a mixture of methanol- water (90/10%). The theoretical lipophilicity values are determined by the Bioloom program (http://biobyte.com/bb/prod/bioloom.html, accessed on 8 April 2024) (Table 1). According to the calculated clog P values, the most lipophilic compounds are 3c, 3d and 3f while the less lipophilic ones are compounds 5a and 5b.
Melting points were determined on a MEL-Temp II (Lab. Devices, Holliston, MA, USA). In vitro tests were carried out using a UV-Vis spectra and recorded on a Perkin-Elmer 554 double-beam spectrophotometer (Perkin-Elmer Corporation Ltd., Lane Beaconsfield, Bucks, UK). Infrared spectra (KBr pellets) were recorded with Perkin-Elmer 597 spectrophotometer (Perkin-Elmer Corporation Ltd., Lane Beaconsfield, Bucks, UK). The ^1H […] Magnetic Resonance (^1H-NMR) spectra were acquired on an Agilent 500/54 (DD2) at 500 MHz in CDCl3 using tetramethylsilane as an internal standard. Agilent 500/54 (DD2) ^13C NMR spectra were acquired at 125 MHz in CDCl3 solutions with tetramethylsilane serving as an internal reference. Coupling constants J are expressed in Hz, and chemical shifts are reported in ppm. Thermo Fisher Scientific Inc., Waltham, MA, USA, used MeOH as the solvent to calculate mass spectra using an LC-PDA-MS Thermo Finnigan system (LC Pump Plus, Autosampler, Surveyor PDA Plus Detector) interfaced with an ESI MSQ Plus (Thermo Finnigan). Thin-layer chromatography using 5554 F254 Silica gel/TLC cards (Merck and Fluka Chemie GmbH Buchs, Steinheim, Switzerland) was used to monitor the reaction progress. Silica gel 60 F254 plates with a diameter of 2 mm were utilized for preparative thin layer chromatography (prep TLC) by Merck KgaA (ICH078057). Merck (20 × 20 cm) plates were used for the experimental assessment of the lipophilicity using reverse phase thin-layer chromatography (RP-TLC) TLC-Silica gel 60 F254 DC Kieselgel.
In this experiment, TLC silica gel 60 F254 1.05715.0001 commercial glass plates from Merck were used. The plates were first immersed in a 5% v/v solution of liquid paraffin in petroleum ether and left for 90 s to become completely impregnated with the stable lipophilic phase. They were then activated by standing for 30 min in an oven at 40 °C and kept there until the time of use. A 70% v/v MeOH/H2O mixture was used as the mobile phase. The mobile phase was saturated with a few drops of liquid paraffin before being used. The spots of the compounds were placed on the plate at a distance of 2 cm from the edges of the plate and also from each other. The development of the spots on the plates was carried out in closed chromatography chambers where the atmosphere is saturated with the mobile phase at room temperature. At the end of development, the solvent-formed front was marked and the plates are dried at 80 °C for about 20–30 min. The appearance of the spots was made under an ultraviolet light lamp. The Rf values were the average of 5–6 measurements for each compound and assuming that the compounds will have been rotated to different positions on the plates. The RM values were calculated from the corresponding Rf values according to the equation [67].RM = log [(1/Rf) − 1](1)

[2] = Interaction with the stable free radical DPPH (reducing activity); settings: 517 nm
Procedure: In general, the compounds present moderate to good antioxidant activity. It seems that the dibenzylacetones present satisfactory antioxidant activity compared to the hybrids at 60 min (1b, 1d and 1f).
The tested compounds (0.1 mM final concentration) dissolved in DMSO were incubated with a solution of DPPH in absolute ethanol in absence of light. The absorbance at 20 and 60 min at 517 nm was recorded at room temperature. NDGA was used as the reference compound.

[3] = Inhibition of AAPH-induced linoleic acid peroxidation; settings: 37 °C, 234 nm
Procedure: The ability of the compounds to inhibit AAPH-induced peroxidation of linoleic acid is another assay to investigate the antioxidant properties of the compounds. Azo compounds such as 2,2′-azobis dihydrochloride (2-amidinopropane) (AAPH) are capable of generating free radicals through spontaneous decomposition at 37 °C. The R- radicals react immediately with air-oxygen to produce peroxy radicals. AAPH was therefore used as the radical initiator and sodium linoleate as substrate subjected to peroxidation. Measurements were carried out at 234 nm using a UV/V is spectrophotometer. Dichalcone 1i substituted with two phenyl groups presents the lowest lipophilicity. […] Therefore, hydrophilic substituents offer an increase in activity.
The interaction of free radicals with cell membrane lipids induces free radical chain reactions, a process called lipid peroxidation. 930 μL of a phosphate buffer solution (0.05 M, pH = 7.4), 10 μL of the sodium linolate solution (16 mM in a buffer solution of Tris-HCl pH = 9) and 10 μL of the tested compounds (stock solutions 100 μΜ) were mixed and the oxidative procedure started after the addition of 50 μL AAPH at 37 °C under air conditions. The conjugated diene’s absorbance was measured at 234 nm at a thermostable spectrophotometer (37 °C) according to previous publication.

[4] = biological target: T1, soybean lipoxygenase (SLOX-1) (Glycine max, UniProt P08170); assay: Inhibition of soybean lipoxygenase in vitro; type: biochemical; settings: pH 9, sodium linoleate substrate; for inhibition at 100 µM: read-out: LOX% Inhibition, 100 μM (±SD); for IC50: read-out: LOX IC50 (μM) (±SD)
T1 construct: 200 μL of plant-derived lipoxygenase solution (1:9 × 10^−4 w/v, in saline); purchased Sigma Chemical, Co; host or cells: soybean (plant-derived)
T1 sequence (P08170 1-839): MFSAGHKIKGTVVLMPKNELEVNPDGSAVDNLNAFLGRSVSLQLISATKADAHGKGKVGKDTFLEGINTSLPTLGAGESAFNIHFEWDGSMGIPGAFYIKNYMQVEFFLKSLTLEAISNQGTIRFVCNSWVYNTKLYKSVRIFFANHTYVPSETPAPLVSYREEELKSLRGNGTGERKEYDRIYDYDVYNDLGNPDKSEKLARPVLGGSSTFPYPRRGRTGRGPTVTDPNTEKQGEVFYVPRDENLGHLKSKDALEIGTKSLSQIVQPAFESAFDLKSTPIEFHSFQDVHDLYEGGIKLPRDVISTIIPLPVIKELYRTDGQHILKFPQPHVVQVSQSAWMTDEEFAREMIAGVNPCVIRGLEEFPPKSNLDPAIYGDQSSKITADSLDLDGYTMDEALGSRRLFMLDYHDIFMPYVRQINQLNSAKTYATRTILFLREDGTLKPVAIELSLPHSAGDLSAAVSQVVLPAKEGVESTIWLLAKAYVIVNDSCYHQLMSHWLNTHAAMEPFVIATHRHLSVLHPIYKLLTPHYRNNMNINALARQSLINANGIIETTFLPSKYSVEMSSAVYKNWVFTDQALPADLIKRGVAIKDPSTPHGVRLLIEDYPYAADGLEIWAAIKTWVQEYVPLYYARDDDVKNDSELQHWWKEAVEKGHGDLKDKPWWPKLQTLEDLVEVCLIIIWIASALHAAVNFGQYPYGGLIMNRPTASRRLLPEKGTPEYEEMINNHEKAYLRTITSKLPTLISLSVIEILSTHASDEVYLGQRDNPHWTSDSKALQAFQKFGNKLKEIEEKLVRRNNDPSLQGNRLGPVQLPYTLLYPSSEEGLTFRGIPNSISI
Procedure: Soybean lipoxygenase SLOX-1 at pH 9 is used in vitro. During this assay linoleic acid sodium salt is converted to the corresponding 13-hydroperoxide. The reaction is recorded photometrically at 234 nm using the UV-based enzyme assay. […] It is known that soybean LOX inhibitory activity induced by NSAIDs is qualitatively quite similar to the inhibition observed on the rat mast cells LOX and this assay may be used as a qualitative or semi-quantitative screen for such activity.
To a quartz cell, add 790 μL of Tris-HCl pH = 9.0 buffer, 200 μL of plant-derived lipoxygenase solution (1:9 × 10^−4 w/v, in saline), 10 μL of the test compound solution and 100 μL of sodium linoleate solution (3 mM concentration). The absorbance was measured at 234 nm, where the change in absorbance due to the conversion of linoleic acid to […] was recorded. A solution of 790 μL of Tris-HCl pH = 9.0 buffer, 200 μL of a plant-derived lipoxygenase solution (1:9 × 10^−4 w/v, in saline), 10 μL of DMSO and 100 μL of sodium linoleate solution (3 mM concentration) was used as a control.

SMILES: O=C(/C=C/c1ccc(Cl)cc1)/C=C/c1ccc(Cl)cc1 [Compound 1d, (1E,4E)-1,5-bis(4-chlorophenyl)-1,4-pentadien-3-one]
RM ± SD [1]: 0.50 ± 0.042
RA%, 100 μM, 20 min (±SD) [2]: 86 ± 4.5%
RA%, 100 μM, 60 min (±SD) [2]: 95 ± 4.8%
AAPH% Inhibition, 100 μM (±SD) [3]: 53 ± 0.6%
inhibition at 100 µM [4]: 38 ± 0.7%

SMILES: O=C(/C=C/c1ccc(F)cc1)/C=C/c1ccc(F)cc1 [Compound 1b, (1E,4E)-1,5-bis(4-fluorophenyl)-1,4-pentadien-3-one]
RM ± SD [1]: 0.19 ± 0.001
RA%, 100 μM, 20 min (±SD) [2]: 13 ± 0.6%
RA%, 100 μM, 60 min (±SD) [2]: 100 ± 1.1%
AAPH% Inhibition, 100 μM (±SD) [3]: 37 ± 0.1%
inhibition at 100 µM [4]: 30 ± 0.1%

SMILES: O=C(/C=C/c1ccc(C(F)(F)F)cc1)/C=C/c1ccc(C(F)(F)F)cc1 [Compound 1f, (1E,4E)-1,5-bis(4-(trifluoromethyl)phenyl)-1,4-pentadien-3-one]
RM ± SD [1]: 0.57 ± 0.031
RA%, 100 μM, 20 min (±SD) [2]: 13 ± 0.8%
RA%, 100 μM, 60 min (±SD) [2]: 26 ± 0.9%
AAPH% Inhibition, 100 μM (±SD) [3]: 32 ± 1.4%
inhibition at 100 µM [4]: 24 ± 1.4%

SMILES: C(=C\c1ccccc1)/C1=NN(c2ccccc2)C(c2ccccc2)C1 (stereo not shown) [Compound 2a, (E)-1,5-Diphenyl-3-styryl-4,5-dihydro-1H-pyrazole]
RM ± SD [1]: 1.00 ± 0.084
RA%, 100 μM, 60 min (±SD) [2]: 17 ± 1.2%
AAPH% Inhibition, 100 μM (±SD) [3]: 44 ± 0.7%
inhibition at 100 µM [4]: 42 ± 2.4%

SMILES: Clc1ccc(/C=C/C2=NN(c3ccccc3)C(c3ccc(Cl)cc3)C2)cc1 (stereo not shown) [Compound 2d]
RM ± SD [1]: 1.07 ± 0.067
RA%, 100 μM, 20 min (±SD) [2]: 6 ± 0.4%
AAPH% Inhibition, 100 μM (±SD) [3]: 75 ± 0.1%
IC50 [4]: 2.5 µM

SMILES: Brc1ccc(/C=C/C2=NN(c3ccc(Br)cc3)C(c3ccc(Br)cc3)C2)cc1 (stereo not shown) [Compound 3c]
RM ± SD [1]: 1.46 ± 0.049
RA%, 100 μM, 20 min (±SD) [2]: 2 ± 0.1%
RA%, 100 μM, 60 min (±SD) [2]: 24 ± 0.9%
AAPH% Inhibition, 100 μM (±SD) [3]: 40 ± 1.8%
IC50 [4]: 30 µM

SMILES: CN(C)c1ccc(/C=C/C2=NN(c3ccccc3)C(c3ccc(N(C)C)cc3)C2)cc1 (stereo not shown) [Compound 2e]
RM ± SD [1]: 0.95 ± 0.092
RA%, 100 μM, 20 min (±SD) [2]: 24 ± 0.9%
RA%, 100 μM, 60 min (±SD) [2]: 45 ± 1%
AAPH% Inhibition, 100 μM (±SD) [3]: 78 ± 0.4%
IC50 [4]: 0.35 µM

More lines, main results first:

RM ± SD [1]: 1.39 ± 0.069
inhibition at 100 µM [4]: 11 ± 0.8%
SMILES: Clc1ccc(/C=C/C2=NN(c3ccc(Br)cc3)C(c3ccc(Cl)cc3)C2)cc1 (stereo not shown) [Compound 3d, (E)-1-(4-bromo-phenyl)-5-(4-chloro-phenyl)-3-(4-chlorostyryl)-4,5-dihydro-1H-pyrazole]
RA%, 100 μM, 20 min (±SD) [2]: 6 ± 0.5%
AAPH% Inhibition, 100 μM (±SD) [3]: 52 ± 2.5%

RM ± SD [1]: 1.25 ± 0.086
IC50 [4]: 20 µM
SMILES: CN(C)c1ccc(/C=C/C2=NN(c3ccc(Br)cc3)C(c3ccc(N(C)C)cc3)C2)cc1 (stereo not shown) [Compound 3e]
RA%, 100 μM, 20 min (±SD) [2]: 30 ± 0.9%
RA%, 100 μM, 60 min (±SD) [2]: 53 ± 0.9%
AAPH% Inhibition, 100 μM (±SD) [3]: 80 ± 2.9%

RM ± SD [1]: 0.65 ± 0.048
inhibition at 100 µM [4]: 42 ± 2.7%
SMILES: CC(=O)N1N=C(/C=C/c2ccc(Cl)cc2)CC1c1ccc(Cl)cc1 (stereo not shown) [Compound 6d, (E)-5-(4-chlorophenyl)-3-(4-chlorostyryl)-4,5-dihydro-1-H-pyrazol-1-ethan-1-one]
RA%, 100 μM, 60 min (±SD) [2]: 8 ± 0.7%
AAPH% Inhibition, 100 μM (±SD) [3]: 67 ± 0.4%

RM ± SD [1]: 0.47 ± 0.036
IC50 [4]: 40 µM
SMILES: CC(=O)N1N=C(/C=C/c2ccc(N(C)C)cc2)CC1c1ccc(N(C)C)cc1 (stereo not shown) [Compound 6e, (E)-5-(4-dimethylaminophenyl)-3-(4-dimethylaminostyryl)-4,5-dihydro-1-H-pyrazol-1-ethan-1-one]
RA%, 100 μM, 20 min (±SD) [2]: 7 ± 0.5%
RA%, 100 μM, 60 min (±SD) [2]: 12 ± 1%
AAPH% Inhibition, 100 μM (±SD) [3]: 56 ± 0.3%

RM ± SD [1]: 0.28 ± 0.019
inhibition at 100 µM [4]: 19 ± 0.4%
SMILES: CN(C)c1ccc(/C=C/C2=NN(C(N)=O)C(c3ccc(N(C)C)cc3)C2)cc1 (stereo not shown) [Compound 5e, (E)-5-(4-dimethylaminophenyl)-3-(4-dimethylaminostyryl)-4,5-dihydro-1H-pyrazole-1-carboxamide]
RA%, 100 μM, 20 min (±SD) [2]: 20 ± 0.1%
AAPH% Inhibition, 100 μM (±SD) [3]: 61 ± 0.9%
